Measured values taken from ChEMBL document CHEMBL4311997, “Discovery of a potent histone deacetylase (HDAC) 3/6 selective dual inhibitor” (Eur J Med Chem, 2019).
≈ marks a conversion by molar mass, not a printed value. Calls of active or inactive are those of the source. No cut-off for these calls is given here.

Assays:
[1] = biological target: Histone-lysine N-methyltransferase SUV39H1 (Homo sapiens) (UniProt O43463); assay: Inhibition of human SUV39H1 at 100 uM using histone H3 as substrate incubated for 1 hr in presence of [3H]-SAM by filter binding method relative to control
Homo sapiens [2] = species on record: Homo sapiens; assay: Inhibition of human MLL1 complex at 100 uM using core histone as substrate incubated for 1 hr in presence of [3H]-SAM by filter binding method relative to control
[3] = biological target: DNA (cytosine-5)-methyltransferase 1 (Homo sapiens, UniProt P26358); assay: Inhibition of human DNMT1 using Poly(dI-dC) as substrate incubated for 1 hr in presence of [3H]-SAM by filter binding method
Homo sapiens [4] = species on record: Homo sapiens; assay: Selectivity ratio of IC50 for human HDAC2 to IC50 for human HDAC6
MDA-MB-231 [5] = assay: Antiproliferative activity against human MDA-MB-231 cells incubated for 72 hrs by MTT assay; assay type: functional, cell-based; details: MDA-MB-231, 72 h
KMS-12-BM [6] = assay: Antiproliferative activity against human KMS-12-BM cells incubated for 48 hrs by CellTiter-Glo luminescent cell viability assay; assay type: functional, cell-based
MOLM-14 = assay: Antiproliferative activity against human MOLM14 cells incubated for 48 hrs by CellTiter-Glo luminescent cell viability assay; assay type: functional, cell-based; details: MOLM-14, 48 h
MDA-MB-231 [7] = assay: Induction of apoptosis in human MDA-MB-231 cells assessed as viable cells at 3 uM incubated for 48 hrs by Annexin V-FITC/PI staining by flow cytometric analysis (reference value: 77%); assay type: functional; details: MDA-MB-231, 48 h, read-out: Activity
MDA-MB-231 [8] = assay: Induction of apoptosis in human MDA-MB-231 cells assessed as necrotic cells at 3 uM incubated for 48 hrs by Annexin V-FITC/PI staining by flow cytometric analysis (reference value: 15%); assay type: functional
MDA-MB-231 [9] = assay: Induction of apoptosis in human MDA-MB-231 cells assessed as viable cells at 6 uM incubated for 48 hrs by Annexin V-FITC/PI staining by flow cytometric analysis (reference value: 77%); assay type: functional; details: MDA-MB-231, 48 h, read-out: Activity
MDA-MB-231 [10] = assay: Induction of apoptosis in human MDA-MB-231 cells assessed as late apoptotic cells at 6 uM incubated for 48 hrs by Annexin V-FITC/PI staining by flow cytometric analysis (reference value: 3%); assay type: functional
MDA-MB-231 [11] = assay: Induction of apoptosis in human MDA-MB-231 cells assessed as necrotic cells at 6 uM incubated for 48 hrs by Annexin V-FITC/PI staining by flow cytometric analysis (reference value: 15%); assay type: functional
MDA-MB-231 [12] = assay: Induction of apoptosis in human MDA-MB-231 cells assessed as late apoptotic cells at 9 uM incubated for 48 hrs by Annexin V-FITC/PI staining by flow cytometric analysis (reference value: 3%); assay type: functional
[13] = biological target: Protein deacetylase HDAC6 (Homo sapiens) (UniProt Q9UBN7); assay: Inhibition of HDAC6 in human KMS-12-BM cells assessed as increase in Ac-Tubulin level at 2.5 to 10 uM incubated for 24 hrs by Western blot analysis; assay type: cell-based
KMS-12-BM [14] = assay: Effect on human KMS-12-BM cells assessed as increase in H3K9Me2 level at 2.5 to 10 uM incubated for 24 hrs by Western blot analysis; assay type: functional, cell-based
[15] = Kinetic solubility in pH 7.4 universal buffer measured after 3 hrs by UV spectroscopic analysis; assay type: physicochemical; details: read-out: Kinetic_solubility
[16] = Kinetic solubility in pH 7.4 universal buffer measured after 24 hrs by UV spectroscopic analysis; assay type: physicochemical; details: read-out: Kinetic_solubility
[17] = Therapeutic Index, ratio of EC50 for human AC10 cells to EC50 for human MDA-MB-231 cells; assay type: toxicity; details: AC10 cells versus MDA-MB-231 cells, read-out: Ratio EC50
[18] = Cytotoxicity against human AC10 cells incubated for 24 hrs by CellTiter-Glo Cell Viability Assay; assay type: cell-based; details: AC10, 24 h
TAMH = assay: Cytotoxicity against TAMH cells incubated for 24 hrs by CellTiter-Glo Cell Viability Assay; assay type: cell-based; details: Mus musculus
[19] = Half life in mouse liver microsomes at 3 uM preincubated for 5 mins followed by NADPH addition and measured up to 45 mins by LC-MS/MS analysis; assay type: ADME, Microsome
[20] = Intrinsic clearance in mouse liver microsomes at 3 uM preincubated for 5 mins followed by NADPH addition and measured up to 45 mins by LC-MS/MS analysis; assay type: ADME, Microsome; details: read-out: CLH
[21] = Intrinsic clearance in male rat liver microsomes at 3 uM preincubated for 5 mins followed by NADPH addition and measured up to 45 mins by LC-MS/MS analysis; assay type: ADME, Microsome; details: read-out: CLH
Plasmodium falciparum = assay: microbe, parasite or virus in culture; assay type: functional, organism-based; details: K1, 48 h
Description: Antimalarial activity against ring stage Plasmodium falciparum K1 incubated for 48 hrs by Hoechst 33342 staining based fluorescence based assay

[22] = biological target: Polyamine deacetylase HDAC10 (Homo sapiens, UniProt Q969S8); assay: Inhibition of human HDAC10 using Acetyl-Lys (trifluoroacetyl)-AMC) as substrate incubated for 2 hrs by fluorescence assay
Homo sapiens [23] = species on record: Homo sapiens; assay: Selectivity ratio of IC50 for human HDAC4 to IC50 for human HDAC6
Homo sapiens [24] = species on record: Homo sapiens; assay: Selectivity ratio of IC50 for human HDAC9 to IC50 for human HDAC6
[25] = Genotoxicity in Salmonella typhimurium TA100 in presence of S9 fraction incubated for 48 hrs by Ames test relative to control; assay type: toxicity, subcellular; details: salmonella enterica subsp. enterica serovar typhimurium, s9, 48 h

Protein deacetylase HDAC6 (Homo sapiens), sequence (Q9UBN7 whole entry): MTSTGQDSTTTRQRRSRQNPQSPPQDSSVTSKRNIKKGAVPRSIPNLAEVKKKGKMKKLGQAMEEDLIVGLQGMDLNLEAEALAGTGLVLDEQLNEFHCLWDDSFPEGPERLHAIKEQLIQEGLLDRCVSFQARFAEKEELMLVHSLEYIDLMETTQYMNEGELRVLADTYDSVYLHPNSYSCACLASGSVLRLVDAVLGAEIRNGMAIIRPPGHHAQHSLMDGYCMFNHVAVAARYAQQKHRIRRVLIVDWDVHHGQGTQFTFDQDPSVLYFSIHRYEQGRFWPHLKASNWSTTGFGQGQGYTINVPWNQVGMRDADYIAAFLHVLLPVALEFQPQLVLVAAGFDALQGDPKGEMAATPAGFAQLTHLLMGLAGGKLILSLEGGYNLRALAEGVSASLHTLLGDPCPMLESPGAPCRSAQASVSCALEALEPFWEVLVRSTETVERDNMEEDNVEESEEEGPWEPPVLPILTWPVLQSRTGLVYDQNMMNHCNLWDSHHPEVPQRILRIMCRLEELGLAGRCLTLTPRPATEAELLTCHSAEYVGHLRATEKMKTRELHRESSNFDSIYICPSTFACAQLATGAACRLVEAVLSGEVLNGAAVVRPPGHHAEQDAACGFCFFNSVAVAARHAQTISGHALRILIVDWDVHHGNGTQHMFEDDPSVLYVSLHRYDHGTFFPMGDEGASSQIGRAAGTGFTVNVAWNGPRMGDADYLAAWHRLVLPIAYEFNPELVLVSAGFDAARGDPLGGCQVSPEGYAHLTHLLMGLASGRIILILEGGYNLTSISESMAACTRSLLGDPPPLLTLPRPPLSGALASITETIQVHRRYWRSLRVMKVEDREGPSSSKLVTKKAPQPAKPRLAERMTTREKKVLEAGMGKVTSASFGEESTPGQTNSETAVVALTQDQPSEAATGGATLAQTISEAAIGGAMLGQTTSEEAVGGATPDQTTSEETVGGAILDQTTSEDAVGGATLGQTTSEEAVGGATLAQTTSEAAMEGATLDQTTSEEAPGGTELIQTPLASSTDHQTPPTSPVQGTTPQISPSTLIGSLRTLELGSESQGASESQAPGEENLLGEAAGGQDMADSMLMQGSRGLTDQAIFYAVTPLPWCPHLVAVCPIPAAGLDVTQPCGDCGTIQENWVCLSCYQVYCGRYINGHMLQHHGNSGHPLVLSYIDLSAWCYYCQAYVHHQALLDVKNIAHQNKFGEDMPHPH
Polyamine deacetylase HDAC10, sequence (Q969S8 whole entry): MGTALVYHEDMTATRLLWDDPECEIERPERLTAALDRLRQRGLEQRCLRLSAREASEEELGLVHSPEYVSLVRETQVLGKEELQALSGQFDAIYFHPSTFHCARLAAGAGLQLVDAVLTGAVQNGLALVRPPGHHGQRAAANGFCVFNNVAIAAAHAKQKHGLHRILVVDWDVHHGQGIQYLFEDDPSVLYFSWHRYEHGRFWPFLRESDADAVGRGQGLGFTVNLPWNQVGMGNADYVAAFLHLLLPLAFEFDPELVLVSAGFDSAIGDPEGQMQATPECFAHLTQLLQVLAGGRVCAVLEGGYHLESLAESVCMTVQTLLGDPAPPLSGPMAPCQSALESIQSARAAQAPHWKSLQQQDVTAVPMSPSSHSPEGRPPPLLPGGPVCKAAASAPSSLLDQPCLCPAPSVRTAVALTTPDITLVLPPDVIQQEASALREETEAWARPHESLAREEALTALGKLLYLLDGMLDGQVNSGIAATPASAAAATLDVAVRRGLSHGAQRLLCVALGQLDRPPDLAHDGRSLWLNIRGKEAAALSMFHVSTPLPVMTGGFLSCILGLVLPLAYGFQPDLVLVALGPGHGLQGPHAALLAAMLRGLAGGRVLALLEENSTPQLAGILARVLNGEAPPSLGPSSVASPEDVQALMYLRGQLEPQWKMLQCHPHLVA
DNA (cytosine-5)-methyltransferase 1, sequence (P26358 whole entry): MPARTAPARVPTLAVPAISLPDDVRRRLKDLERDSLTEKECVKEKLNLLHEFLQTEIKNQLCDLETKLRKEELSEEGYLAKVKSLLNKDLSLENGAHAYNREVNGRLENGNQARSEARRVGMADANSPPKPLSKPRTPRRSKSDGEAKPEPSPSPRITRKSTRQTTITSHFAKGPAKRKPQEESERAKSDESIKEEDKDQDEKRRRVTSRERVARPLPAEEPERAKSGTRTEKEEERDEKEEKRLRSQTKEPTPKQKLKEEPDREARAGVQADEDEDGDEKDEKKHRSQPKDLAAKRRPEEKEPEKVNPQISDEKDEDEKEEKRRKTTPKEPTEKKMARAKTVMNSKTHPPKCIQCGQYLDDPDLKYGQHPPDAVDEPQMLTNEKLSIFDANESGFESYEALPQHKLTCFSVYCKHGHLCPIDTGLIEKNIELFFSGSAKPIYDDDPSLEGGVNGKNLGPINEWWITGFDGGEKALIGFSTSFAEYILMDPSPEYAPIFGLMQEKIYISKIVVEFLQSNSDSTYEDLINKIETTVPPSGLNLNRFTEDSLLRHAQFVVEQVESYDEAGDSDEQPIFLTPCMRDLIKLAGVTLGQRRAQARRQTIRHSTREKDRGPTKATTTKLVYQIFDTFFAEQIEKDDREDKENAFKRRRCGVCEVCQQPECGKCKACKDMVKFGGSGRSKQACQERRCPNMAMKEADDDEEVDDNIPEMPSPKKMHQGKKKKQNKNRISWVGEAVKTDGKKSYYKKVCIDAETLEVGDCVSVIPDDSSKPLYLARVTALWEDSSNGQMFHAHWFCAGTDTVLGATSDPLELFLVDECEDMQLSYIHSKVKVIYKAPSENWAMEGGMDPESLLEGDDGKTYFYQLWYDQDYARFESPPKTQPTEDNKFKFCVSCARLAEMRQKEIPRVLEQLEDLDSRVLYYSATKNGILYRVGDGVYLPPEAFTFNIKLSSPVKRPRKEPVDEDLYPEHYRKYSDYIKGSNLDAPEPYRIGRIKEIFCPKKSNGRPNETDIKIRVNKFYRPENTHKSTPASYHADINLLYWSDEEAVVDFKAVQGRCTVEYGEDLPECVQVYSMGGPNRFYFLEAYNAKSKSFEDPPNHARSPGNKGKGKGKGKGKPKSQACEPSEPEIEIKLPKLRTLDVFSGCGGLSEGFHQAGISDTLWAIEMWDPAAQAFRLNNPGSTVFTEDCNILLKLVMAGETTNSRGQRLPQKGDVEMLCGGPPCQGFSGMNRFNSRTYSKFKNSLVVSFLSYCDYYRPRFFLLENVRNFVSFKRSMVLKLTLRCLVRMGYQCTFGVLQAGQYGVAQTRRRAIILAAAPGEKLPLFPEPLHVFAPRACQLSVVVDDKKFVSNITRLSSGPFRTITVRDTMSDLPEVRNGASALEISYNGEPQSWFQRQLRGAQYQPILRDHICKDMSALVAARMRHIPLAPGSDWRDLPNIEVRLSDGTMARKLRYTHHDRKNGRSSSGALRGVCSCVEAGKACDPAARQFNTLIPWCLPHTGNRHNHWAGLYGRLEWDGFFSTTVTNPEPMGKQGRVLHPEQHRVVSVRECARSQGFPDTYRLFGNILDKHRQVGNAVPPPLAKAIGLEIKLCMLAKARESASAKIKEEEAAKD
Histone-lysine N-methyltransferase SUV39H1 (Homo sapiens), sequence (O43463 whole entry): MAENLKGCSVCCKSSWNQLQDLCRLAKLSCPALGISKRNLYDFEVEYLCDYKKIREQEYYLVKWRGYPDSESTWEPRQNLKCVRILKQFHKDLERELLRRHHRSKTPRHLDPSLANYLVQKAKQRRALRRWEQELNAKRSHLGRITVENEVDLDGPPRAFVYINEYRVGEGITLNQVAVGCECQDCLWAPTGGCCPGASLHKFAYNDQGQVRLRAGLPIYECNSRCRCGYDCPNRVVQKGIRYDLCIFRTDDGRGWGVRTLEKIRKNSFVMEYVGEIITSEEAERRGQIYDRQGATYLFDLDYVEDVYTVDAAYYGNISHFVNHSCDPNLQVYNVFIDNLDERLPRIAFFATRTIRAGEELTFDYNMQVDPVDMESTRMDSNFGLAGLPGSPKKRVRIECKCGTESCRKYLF

inhibition [1]: 14%
inhibition (Homo sapiens [2]): 42%
IC50 [3]: 14 µM
Ratio IC50 (Homo sapiens [4]): 435
EC50 (MDA-MB-231 [5]): 6.3 µM
EC50 (MOLM-14): 2.8 µM
inhibition [13]: Active
solubility kinetic at 3 h [15]: 4.6 µM (≈ 3.15 µg/mL)
solubility kinetic at 24 h [16]: 4 µM (≈ 2.74 µg/mL)
half-life at 3 µM [19]: 26.6 min
microsomal CLint at 3 µM [20]: 52.2 µL/min/mg
microsomal CLint at 3 µM [21]: 16.3 µL/min/mg
IC50 (Plasmodium falciparum): 0.508 µM
IC50 [22]: 2.69 µM
Ratio IC50 (Homo sapiens [23]): > 3000
Ratio IC50 (Homo sapiens [24]): > 3000
Structure (SMILES): COc1ccc(CN2CCC(Nc3nc(Nc4ccc(NC(=O)CCCCCCC(=O)NO)cc4)nc4cc(OC)c(OC)cc34)CC2)cc1
EC50 (KMS-12-BM [6]): 7.6 µM
viability at 3 µM (MDA-MB-231 [7]): 48%
Activity (MDA-MB-231 [8]): 15%
viability at 6 µM (MDA-MB-231 [9]): 52%
Activity (MDA-MB-231 [10]): 15%
Activity (MDA-MB-231 [11]): 12%
Activity (MDA-MB-231 [12]): 11%
Activity (KMS-12-BM [14]): Active
selectivity ratio [17]: 15
EC50 [18]: 94 µM
EC50 (TAMH): 29 µM
Activity [25]: Non-Toxic
